The values below come from publication PMC6045489 (ACS Omega, 2018).

The test system of test [1] is MDA-MB-231 human breast adenocarcinoma cell line. Description: Sulforhodamine B antiproliferative assay, MDA-MB-231. Format: cell-based. Particulars: MDA-MB-231, read-out: IC50 MDA-MB-231, mean ± SEM. In general terms: The SRB assay estimates cell density from bound dye.
Test [2] has as its system DU-145 prostate cancer cell line. The test can be described thus: Sulforhodamine B antiproliferative assay, DU-145. The format is cell-based. The following applies: Homo sapiens, DU-145, read-out: IC50 DU-145, mean ± SEM.
For test [3], the system named is A549 lung cancer cell line. Description: Sulforhodamine B antiproliferative assay, A549. Format: cell-based. Particulars: Homo sapiens, A549, read-out: IC50 A549, mean ± SEM.
Test [4] has as its system HeLa cervical cancer cell line. Description: Sulforhodamine B antiproliferative assay, HeLa. The format is cell-based. The following applies: Homo sapiens, read-out: IC50 HeLa, mean ± SEM.
Test [5] deals with HEK-293 primary human embryonic kidney cell line. Description: Sulforhodamine B assay, control cell line HEK-293. Format: cell-based. Particulars: HEK293, read-out: IC50 HEK-293, mean ± SEM, normal control cells.
The subject of test [6] is DU-145 cells. Description: Immunoblot of apoptotic proteins. The format is cell-based, human. Particulars: DU-145, immunoblot, vs vehicle control.
Test [7] has as its system HeLa cells. The following applies: read-out: IC50 HeLa (reported literature value); cited from earlier work.

A word on the IC50: it is the point on the concentration scale where inhibition reaches its midpoint.

With `C#CCCCC[C@H](C)C[C@@H](C)C(=O)N1C(=O)OC[C@H]1Cc1ccccc1` [Compound 17, (R)-4-Benzyl-3-((2R,4S)-2,4-dimethyldec-9-ynoyl)oxazolidin-2-one], the IC50 in test [1] worked out at 102 ± 14 µM; in test [2], 188 ± 29 µM; in test [3] it was 158 ± 15 µM; in test [4], 160 ± 10 µM; in test [5], 293 ± 16 µM.

Take `COc1cccc2c1C(=O)c1c(O)c3c(c(O)c1C2=O)C[C@@](O)(C(=O)CO)C[C@@H]3O[C@H]1C[C@H](N)[C@H](O)[C@H](C)O1` [doxorubicin, reference compound]: the IC50 came to 1 ± 0.1 µM in test [1], 0.5 ± 0.2 µM in test [2], 1 ± 0.1 µM in test [3] and 39 ± 2 µM in test [5]. Besides, in test [6], the “Annexin V protein expression” value is “highly expressed”. Moreover, the BAX protein expression entry in test [6] was “highly expressed”.

Take jahanyne: the IC50 in test [7] is 1.8 µM.

Take `CC(O)[C@@H]1CCCN1C(=O)[C@@H]1CCCN1C(=O)OC(C)(C)C` (mixture of isomers) [Compound 22, (2S)-tert-Butyl 2-((2S)-2-(1-Hydroxyethyl)pyrrolidine-1-carbonyl)pyrrolidine-1-carboxylate]: the IC50 is 8 ± 0.4 µM in test [1]; 2 ± 0.8 µM in test [2]; 0.5 ± 0.03 µM in test [3]; 26 ± 3 µM in test [4]; 3390 ± 123 µM in test [5].

Take `C#CCCCC[C@H](C)C[C@@H](C)C(=O)O` [Compound 2, (2R,4S)-2,4-Dimethyldec-9-ynoic Acid]: the IC50 in test [1] was determined as 164 ± 20 µM; in test [2], 123 ± 20 µM; in test [3] it was 167 ± 12 µM; in test [4], 122 ± 14 µM; in test [5], 259 ± 35 µM.

Take `CC(=O)[C@@H]1CCCN1C(=O)[C@@H]1CCCN1C(=O)OC(C)(C)C` [Compound 21, tert-Butyl(S)-2-((S)-2-acetylpyrrolidine-1-carbonyl)pyrrolidine-1-carboxylate]: the IC50 worked out at 3 ± 0.1 µM in test [1]; 1 ± 0.9 µM in test [2]; 5 ± 0.4 µM in test [3]; 5 ± 1 µM in test [4]; 5440 ± 245 µM in test [5].
